In ChEMBL document CHEMBL6134768, “Design, synthesis, and structure-activity relationship studies of 6H-benzo[b]indeno[1,2-d]thiophen-6-one derivatives as DYRK1A/CLK1/CLK4/haspin inhibitors” (RSC Med Chem, 2025):

What was measured:
[1] = rat, microsomes
[2] = target: Dual specificity tyrosine-phosphorylation-regulated kinase 1B (Homo sapiens) (UniProt Q9Y463); assay: Inhibition of human GST-tagged DYRK1B extracted from Escherichia coli assessed as residual activity using gamma-32 ATP and KKISGRLSPIMTEQ as substrate at 1 uM by radiometric kinase assay relative to control
[3] = Metabolic stability in rat liver microsomes assessed as half life; format: ADME, Microsome
[4] = Metabolic stability in rat liver microsomes assessed as degradation; format: ADME, Microsome; settings: read-out: Drug degradation
[5] = target: Cyclin-dependent kinase 5/CDK5 activator 1 (Homo sapiens) (UniProt Q00535+Q15078); assay: Inhibition of CDK5/p25 (unknown origin) at 0.35 uM by Z-LYTE kinase activity assay relative to control; format: protein-complex assay
[6] = target: Serine/threonine-protein kinase 33 (Homo sapiens) (UniProt Q9BYT3); assay: Inhibition of STK33 (unknown origin) at 0.35 uM by LanthaScreen kinase binding assay relative to control
[7] = target: T1, Dual specificity protein kinase CLK4 (Homo sapiens, UniProt Q9HAZ1); assay: Inhibition of CLK4 (unknown origin) by radiometric assay relative to control
Target sequence in this assay (Q9HAZ1 whole entry): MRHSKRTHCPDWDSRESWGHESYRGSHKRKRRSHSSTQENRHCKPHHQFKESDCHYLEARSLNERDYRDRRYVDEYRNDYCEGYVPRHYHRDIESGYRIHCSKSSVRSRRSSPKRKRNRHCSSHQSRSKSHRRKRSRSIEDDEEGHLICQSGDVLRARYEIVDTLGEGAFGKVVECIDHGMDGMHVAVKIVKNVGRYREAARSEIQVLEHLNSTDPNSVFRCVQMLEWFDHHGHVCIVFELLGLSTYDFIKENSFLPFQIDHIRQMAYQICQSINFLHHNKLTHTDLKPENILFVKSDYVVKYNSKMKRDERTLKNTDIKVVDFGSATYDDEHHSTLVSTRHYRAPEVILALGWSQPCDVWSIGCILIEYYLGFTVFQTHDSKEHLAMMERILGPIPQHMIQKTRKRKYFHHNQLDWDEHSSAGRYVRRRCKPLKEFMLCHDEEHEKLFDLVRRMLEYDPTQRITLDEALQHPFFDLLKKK

[8] = target: Dual specificity tyrosine-phosphorylation-regulated kinase 1B (Homo sapiens) (UniProt Q9Y463); assay: Inhibition of DYRK1B (unknown origin) at 0.35 uM by radiometric assay relative to control
[9] = target: T2, Serine/threonine-protein kinase haspin (Homo sapiens, UniProt Q8TF76); assay: Inhibition of GSG2 (haspin) (unknown origin) by Adapta kinase activity assay relative to control
T2 sequence (Q8TF76 whole entry): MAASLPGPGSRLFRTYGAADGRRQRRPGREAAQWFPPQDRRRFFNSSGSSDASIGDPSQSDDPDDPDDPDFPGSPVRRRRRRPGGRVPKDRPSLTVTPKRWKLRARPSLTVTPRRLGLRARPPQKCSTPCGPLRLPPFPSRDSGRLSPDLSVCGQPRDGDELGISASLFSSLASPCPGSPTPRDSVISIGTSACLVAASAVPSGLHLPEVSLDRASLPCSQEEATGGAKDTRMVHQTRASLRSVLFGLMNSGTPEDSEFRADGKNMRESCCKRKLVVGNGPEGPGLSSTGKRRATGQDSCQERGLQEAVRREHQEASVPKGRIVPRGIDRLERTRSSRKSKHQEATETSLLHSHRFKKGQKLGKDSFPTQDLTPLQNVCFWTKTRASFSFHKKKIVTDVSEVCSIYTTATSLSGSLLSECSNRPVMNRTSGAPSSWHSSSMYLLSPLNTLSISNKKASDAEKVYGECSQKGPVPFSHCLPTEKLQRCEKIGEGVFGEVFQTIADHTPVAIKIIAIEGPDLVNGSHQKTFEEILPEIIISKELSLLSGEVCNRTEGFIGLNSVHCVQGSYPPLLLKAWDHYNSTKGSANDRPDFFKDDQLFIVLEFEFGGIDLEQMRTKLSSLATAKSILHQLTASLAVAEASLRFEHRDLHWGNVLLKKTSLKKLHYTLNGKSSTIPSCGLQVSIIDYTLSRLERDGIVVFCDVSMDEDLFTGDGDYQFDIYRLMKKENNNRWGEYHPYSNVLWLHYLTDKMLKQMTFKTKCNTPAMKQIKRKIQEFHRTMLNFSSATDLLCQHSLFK

[10] = target: Myosin light chain kinase 2, skeletal/cardiac muscle (Homo sapiens) (UniProt Q9H1R3); assay: Inhibition of MLCK2 (unknown origin) at 0.35 uM by LanthaScreen kinase binding assay relative to control
[11] = target: T3, Serine/threonine-protein kinase haspin (Homo sapiens) (UniProt Q8TF76); assay: Inhibition of GSG2 (haspin) (unknown origin) at 0.35 uM by radiometric assay relative to control
T3 sequence (whole entry): T2 sequence (Q8TF76 whole entry)

[12] = target: T4, Dual specificity tyrosine-phosphorylation-regulated kinase 2 (Homo sapiens) (UniProt Q92630); assay: Inhibition of DYRK2 (unknown origin) at 0.35 uM by LanthaScreen kinase binding assay relative to control
T4 sequence (whole entry): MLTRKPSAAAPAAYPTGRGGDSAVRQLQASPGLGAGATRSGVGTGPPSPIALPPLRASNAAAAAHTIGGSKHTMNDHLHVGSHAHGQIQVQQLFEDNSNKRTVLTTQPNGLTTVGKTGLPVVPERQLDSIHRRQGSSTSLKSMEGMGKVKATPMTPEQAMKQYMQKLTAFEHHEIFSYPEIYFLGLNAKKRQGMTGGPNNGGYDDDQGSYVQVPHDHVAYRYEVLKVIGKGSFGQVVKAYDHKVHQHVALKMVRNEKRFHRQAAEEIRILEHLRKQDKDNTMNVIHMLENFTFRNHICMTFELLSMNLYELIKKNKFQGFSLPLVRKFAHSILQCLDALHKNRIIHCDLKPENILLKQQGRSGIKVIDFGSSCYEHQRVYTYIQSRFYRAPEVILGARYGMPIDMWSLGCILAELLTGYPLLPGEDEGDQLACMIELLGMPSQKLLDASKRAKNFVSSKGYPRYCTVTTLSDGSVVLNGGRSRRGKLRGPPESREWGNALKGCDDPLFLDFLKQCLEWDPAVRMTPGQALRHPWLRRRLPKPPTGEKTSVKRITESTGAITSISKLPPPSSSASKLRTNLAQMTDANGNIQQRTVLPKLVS

[13] = target: T1, Dual specificity protein kinase CLK4; assay: Inhibition of CLK4 (unknown origin) by LanthaScreen kinase binding assay relative to control
Target sequence in this assay (Q9HAZ1 whole entry): as the sequence (Q9HAZ1 whole entry) above

[14] = target: SRSF protein kinase 2 (Homo sapiens) (UniProt P78362); assay: Inhibition of SRPK2 (unknown origin) at 0.35 uM by Z-LYTE kinase activity assay relative to control
[15] = target: SRSF protein kinase 1 (Homo sapiens) (UniProt Q96SB4); assay: Inhibition of SRPK1 (unknown origin) at 0.35 uM by Z-LYTE kinase activity assay relative to control
[16] = target: Homeodomain-interacting protein kinase 1 (Homo sapiens) (UniProt Q86Z02); assay: Inhibition of HIPK1 (Myak) (unknown origin) at 0.35 uM by Z-LYTE kinase activity assay relative to control
[17] = target: Dual specificity protein kinase CLK1 (Homo sapiens) (UniProt P49759); assay: Inhibition of CLK1 (unknown origin) at 0.35 uM by Z-LYTE kinase activity assay relative to control
[18] = target: BDNF/NT-3 growth factors receptor (Homo sapiens) (UniProt Q16620); assay: Inhibition of NTRK2 (TRKB) (unknown origin) at 0.35 uM by Z-LYTE kinase activity assay relative to control
[19] = target: T1, Dual specificity protein kinase CLK4; assay: Inhibition of CLK4 (unknown origin) at 0.35 uM by radiometric assay relative to control
Target sequence in this assay (Q9HAZ1 whole entry, looked up): as the sequence (Q9HAZ1 whole entry) above

U-87 MG = assay: cells; settings: Homo sapiens, 72 h
[20] = target: T5, Serine/threonine-protein kinase 17A (Homo sapiens) (UniProt Q9UEE5); assay: Inhibition of STK17A (DRAK1) (unknown origin) at 0.35 uM by LanthaScreen kinase binding assay relative to control
T5 sequence (whole entry): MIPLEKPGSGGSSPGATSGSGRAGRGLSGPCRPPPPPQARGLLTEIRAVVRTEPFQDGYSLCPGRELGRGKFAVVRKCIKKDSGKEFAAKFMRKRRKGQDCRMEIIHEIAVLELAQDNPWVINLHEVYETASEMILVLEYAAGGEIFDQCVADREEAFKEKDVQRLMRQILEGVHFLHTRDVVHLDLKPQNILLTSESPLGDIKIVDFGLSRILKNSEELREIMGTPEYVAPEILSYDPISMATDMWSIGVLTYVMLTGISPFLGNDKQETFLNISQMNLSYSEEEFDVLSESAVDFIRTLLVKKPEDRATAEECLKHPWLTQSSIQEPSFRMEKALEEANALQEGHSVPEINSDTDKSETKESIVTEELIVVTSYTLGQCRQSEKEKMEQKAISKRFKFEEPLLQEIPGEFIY

[21] = target: Dual specificity tyrosine-phosphorylation-regulated kinase 1B (Homo sapiens) (UniProt Q9Y463); assay: Inhibition of DYRK1B (unknown origin) at 0.35 uM by Z-LYTE kinase activity assay relative to control
[22] = target: Dual specificity protein kinase CLK3 (Homo sapiens) (UniProt P49761); assay: Inhibition of CLK3 (unknown origin) at 0.35 uM by Z-LYTE kinase activity assay relative to control
[23] = target: T6, Dual specificity tyrosine-phosphorylation-regulated kinase 3 (Homo sapiens) (UniProt O43781); assay: Inhibition of DYRK3 (unknown origin) at 0.35 uM by Z-LYTE kinase activity assay relative to control
T6 sequence (whole entry): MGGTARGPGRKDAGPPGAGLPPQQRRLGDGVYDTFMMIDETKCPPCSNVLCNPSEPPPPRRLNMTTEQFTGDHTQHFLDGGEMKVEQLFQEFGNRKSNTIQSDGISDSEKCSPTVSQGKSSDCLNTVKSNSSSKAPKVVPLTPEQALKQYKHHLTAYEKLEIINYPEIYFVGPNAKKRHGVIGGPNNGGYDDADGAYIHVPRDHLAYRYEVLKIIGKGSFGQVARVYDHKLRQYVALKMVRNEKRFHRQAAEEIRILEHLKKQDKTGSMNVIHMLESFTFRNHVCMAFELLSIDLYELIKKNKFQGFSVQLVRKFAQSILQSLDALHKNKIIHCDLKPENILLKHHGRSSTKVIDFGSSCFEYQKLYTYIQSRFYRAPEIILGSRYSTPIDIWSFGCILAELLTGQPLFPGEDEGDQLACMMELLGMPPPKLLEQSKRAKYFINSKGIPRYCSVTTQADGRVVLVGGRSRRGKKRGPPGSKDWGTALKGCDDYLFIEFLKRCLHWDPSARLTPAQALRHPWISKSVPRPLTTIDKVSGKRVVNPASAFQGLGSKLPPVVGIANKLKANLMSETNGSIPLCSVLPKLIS

[24] = target: T3, Serine/threonine-protein kinase haspin (Homo sapiens); assay: Inhibition of GSG2 (haspin) (unknown origin) at 0.35 uM by Adapta kinase activity assay relative to control
[25] = target: T2, Serine/threonine-protein kinase haspin; assay: Inhibition of GSG2 (haspin) (unknown origin) by radiometric assay relative to control
[26] = target: Serine/threonine-protein kinase pim-1 (Homo sapiens) (UniProt P11309); assay: Inhibition of PIM1 (unknown origin) at 0.35 uM by Z-LYTE kinase activity assay relative to control
[27] = target: T1, Dual specificity protein kinase CLK4; assay: Inhibition of CLK4 (unknown origin) at 0.35 uM by LanthaScreen kinase binding assay relative to control
Target sequence in this assay (Q9HAZ1 whole entry, looked up): as the sequence (Q9HAZ1 whole entry) above

[28] = target: Epidermal growth factor receptor (Homo sapiens) (UniProt P00533); assay: Inhibition of EGFR (ErbB1) (unknown origin) at 0.35 uM by Z-LYTE kinase activity assay relative to control
[29] = target: Dual specificity protein kinase CLK1 (Homo sapiens) (UniProt P49759); assay: Inhibition of CLK1 (unknown origin) at 0.35 uM by radiometric assay relative to control
cells = settings: Homo sapiens, U373 MG, 72 h

Sequence of Dual specificity tyrosine-phosphorylation-regulated kinase 1B (Homo sapiens) (Q9Y463 whole entry, looked up): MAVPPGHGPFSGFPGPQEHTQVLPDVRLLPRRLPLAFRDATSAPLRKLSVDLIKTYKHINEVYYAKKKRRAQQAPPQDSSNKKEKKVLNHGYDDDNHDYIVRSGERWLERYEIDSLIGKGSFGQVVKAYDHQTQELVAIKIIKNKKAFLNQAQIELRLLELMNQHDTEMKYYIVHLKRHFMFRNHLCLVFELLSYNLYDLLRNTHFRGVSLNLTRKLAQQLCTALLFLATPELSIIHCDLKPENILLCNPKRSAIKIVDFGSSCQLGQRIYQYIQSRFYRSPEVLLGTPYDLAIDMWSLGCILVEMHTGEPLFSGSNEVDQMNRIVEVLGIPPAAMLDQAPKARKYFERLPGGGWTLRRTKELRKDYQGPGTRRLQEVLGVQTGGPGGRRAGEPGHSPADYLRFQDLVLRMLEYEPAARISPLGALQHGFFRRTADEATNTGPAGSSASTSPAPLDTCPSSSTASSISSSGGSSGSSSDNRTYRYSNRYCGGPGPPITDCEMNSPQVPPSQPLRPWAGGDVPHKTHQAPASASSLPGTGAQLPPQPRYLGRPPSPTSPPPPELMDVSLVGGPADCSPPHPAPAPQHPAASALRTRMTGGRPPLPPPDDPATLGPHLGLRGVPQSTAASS
Sequence of Dual specificity protein kinase CLK1 (Homo sapiens) (P49759 whole entry, looked up): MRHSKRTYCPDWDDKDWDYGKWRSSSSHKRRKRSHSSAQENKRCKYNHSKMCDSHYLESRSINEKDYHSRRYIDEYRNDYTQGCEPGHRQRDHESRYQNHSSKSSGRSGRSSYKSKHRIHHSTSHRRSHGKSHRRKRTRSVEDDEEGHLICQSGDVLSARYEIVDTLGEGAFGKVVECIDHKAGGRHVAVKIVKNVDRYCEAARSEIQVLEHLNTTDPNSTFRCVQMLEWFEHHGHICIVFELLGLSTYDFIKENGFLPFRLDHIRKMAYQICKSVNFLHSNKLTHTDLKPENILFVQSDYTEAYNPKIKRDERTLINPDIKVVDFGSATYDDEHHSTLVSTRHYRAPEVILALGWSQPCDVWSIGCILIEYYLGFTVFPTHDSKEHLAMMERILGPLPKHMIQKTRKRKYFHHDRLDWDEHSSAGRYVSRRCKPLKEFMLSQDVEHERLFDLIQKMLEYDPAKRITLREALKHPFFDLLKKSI
Sequence of SRSF protein kinase 2 (Homo sapiens) (P78362 whole entry, looked up): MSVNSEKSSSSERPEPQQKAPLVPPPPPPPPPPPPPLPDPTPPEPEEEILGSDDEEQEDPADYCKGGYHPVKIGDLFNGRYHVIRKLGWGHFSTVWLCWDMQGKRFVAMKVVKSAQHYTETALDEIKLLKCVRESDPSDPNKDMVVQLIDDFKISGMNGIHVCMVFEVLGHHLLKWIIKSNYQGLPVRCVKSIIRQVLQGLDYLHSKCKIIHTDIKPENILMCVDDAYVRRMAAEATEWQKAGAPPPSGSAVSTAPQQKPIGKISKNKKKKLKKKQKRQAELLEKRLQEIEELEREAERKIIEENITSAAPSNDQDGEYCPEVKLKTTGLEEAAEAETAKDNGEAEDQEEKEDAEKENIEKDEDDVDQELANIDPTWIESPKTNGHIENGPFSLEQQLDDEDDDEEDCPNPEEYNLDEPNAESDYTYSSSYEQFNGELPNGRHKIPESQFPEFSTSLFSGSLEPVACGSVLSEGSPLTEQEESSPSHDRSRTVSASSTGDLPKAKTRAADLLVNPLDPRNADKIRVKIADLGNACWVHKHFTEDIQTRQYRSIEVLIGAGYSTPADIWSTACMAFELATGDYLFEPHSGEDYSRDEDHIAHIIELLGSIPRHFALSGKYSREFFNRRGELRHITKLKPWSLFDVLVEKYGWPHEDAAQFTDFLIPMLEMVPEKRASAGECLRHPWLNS
Sequence of BDNF/NT-3 growth factors receptor (Homo sapiens) (Q16620 32-822 limits assumed): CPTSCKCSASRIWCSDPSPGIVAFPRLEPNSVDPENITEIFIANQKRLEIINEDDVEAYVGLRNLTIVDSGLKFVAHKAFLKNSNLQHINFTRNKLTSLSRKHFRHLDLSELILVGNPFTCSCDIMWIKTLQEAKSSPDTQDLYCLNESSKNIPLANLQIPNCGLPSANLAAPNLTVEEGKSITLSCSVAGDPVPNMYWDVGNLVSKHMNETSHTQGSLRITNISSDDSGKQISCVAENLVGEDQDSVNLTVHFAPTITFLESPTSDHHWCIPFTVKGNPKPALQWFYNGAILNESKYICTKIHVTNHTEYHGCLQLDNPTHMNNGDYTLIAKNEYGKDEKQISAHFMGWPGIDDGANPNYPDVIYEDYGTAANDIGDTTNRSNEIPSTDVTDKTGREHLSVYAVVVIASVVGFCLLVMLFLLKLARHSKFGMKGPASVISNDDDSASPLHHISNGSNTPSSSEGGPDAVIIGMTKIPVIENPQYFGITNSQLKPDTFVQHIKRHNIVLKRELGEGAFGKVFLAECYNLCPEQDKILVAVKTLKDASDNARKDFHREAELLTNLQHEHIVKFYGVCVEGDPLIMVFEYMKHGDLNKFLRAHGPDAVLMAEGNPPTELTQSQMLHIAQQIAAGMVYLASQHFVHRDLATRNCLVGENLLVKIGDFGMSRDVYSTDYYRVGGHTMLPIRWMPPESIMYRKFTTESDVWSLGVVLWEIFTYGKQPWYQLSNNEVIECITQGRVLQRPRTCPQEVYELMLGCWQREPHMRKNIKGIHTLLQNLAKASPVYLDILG
Sequence of Homeodomain-interacting protein kinase 1 (Homo sapiens) (Q86Z02 whole entry, looked up): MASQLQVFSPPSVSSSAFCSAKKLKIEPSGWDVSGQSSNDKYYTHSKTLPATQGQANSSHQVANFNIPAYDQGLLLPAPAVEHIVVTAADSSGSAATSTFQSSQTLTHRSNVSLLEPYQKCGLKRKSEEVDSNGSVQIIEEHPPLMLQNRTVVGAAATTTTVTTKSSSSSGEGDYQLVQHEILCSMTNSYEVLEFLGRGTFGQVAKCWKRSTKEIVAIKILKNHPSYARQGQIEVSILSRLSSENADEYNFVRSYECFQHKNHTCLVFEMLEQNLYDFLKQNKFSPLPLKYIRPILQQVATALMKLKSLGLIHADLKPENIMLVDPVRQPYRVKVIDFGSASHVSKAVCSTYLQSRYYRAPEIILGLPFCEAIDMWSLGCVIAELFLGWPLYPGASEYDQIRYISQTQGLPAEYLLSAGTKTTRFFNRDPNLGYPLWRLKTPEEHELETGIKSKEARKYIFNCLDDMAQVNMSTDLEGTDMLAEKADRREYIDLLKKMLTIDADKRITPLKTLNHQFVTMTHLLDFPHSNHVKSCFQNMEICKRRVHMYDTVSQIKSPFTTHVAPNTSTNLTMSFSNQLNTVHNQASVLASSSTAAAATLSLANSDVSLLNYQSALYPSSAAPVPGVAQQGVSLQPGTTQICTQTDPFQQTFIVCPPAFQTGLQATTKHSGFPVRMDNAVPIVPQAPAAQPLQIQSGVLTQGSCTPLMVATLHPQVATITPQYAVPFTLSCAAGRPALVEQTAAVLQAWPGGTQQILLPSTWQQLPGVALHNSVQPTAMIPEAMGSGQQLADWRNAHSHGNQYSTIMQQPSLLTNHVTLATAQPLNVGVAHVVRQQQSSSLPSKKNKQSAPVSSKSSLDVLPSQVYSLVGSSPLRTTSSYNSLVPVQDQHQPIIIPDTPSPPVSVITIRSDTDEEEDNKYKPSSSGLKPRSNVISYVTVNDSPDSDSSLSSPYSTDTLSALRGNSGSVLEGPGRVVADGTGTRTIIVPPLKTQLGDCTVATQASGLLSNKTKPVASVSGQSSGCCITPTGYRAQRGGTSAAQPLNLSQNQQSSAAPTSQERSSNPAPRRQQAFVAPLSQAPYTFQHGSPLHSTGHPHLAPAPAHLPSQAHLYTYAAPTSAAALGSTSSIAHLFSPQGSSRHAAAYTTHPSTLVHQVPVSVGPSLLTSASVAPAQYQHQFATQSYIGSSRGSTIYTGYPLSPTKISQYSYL
Sequence of Serine/threonine-protein kinase 33 (Homo sapiens) (Q9BYT3 whole entry, looked up): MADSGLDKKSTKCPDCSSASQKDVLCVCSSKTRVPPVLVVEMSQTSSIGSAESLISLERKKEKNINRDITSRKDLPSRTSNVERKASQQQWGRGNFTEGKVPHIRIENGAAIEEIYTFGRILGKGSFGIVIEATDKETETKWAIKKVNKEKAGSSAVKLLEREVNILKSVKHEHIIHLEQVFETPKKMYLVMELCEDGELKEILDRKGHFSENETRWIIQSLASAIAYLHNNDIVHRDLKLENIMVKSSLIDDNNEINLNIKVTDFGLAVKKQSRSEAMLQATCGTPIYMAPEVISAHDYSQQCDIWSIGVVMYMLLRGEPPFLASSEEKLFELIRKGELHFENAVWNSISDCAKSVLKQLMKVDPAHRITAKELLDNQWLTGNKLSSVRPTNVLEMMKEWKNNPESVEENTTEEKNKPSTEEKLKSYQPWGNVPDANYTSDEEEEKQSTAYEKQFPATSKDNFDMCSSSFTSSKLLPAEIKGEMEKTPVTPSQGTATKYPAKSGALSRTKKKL

COc1ccc2c(c1)-c1c(sc3ccccc13)C2=O
CLH [1]: 68.8 µL/min/mg
Activity ([2]; INHIBITOR): < 5%
t1/2 [3]: 33.7 min

COc1cccc2c1C(=O)c1sc3ccc(O)cc3c1-2
Activity [2]: 78%

COc1cccc2c1C(=O)c1sc3ccccc3c1-2
CLH [1]: > 500 µL/min/mg
Activity ([2]; INHIBITOR): < 5%
t1/2 [3]: < 5 min

COc1ccc2sc3c(c2c1)-c1ccccc1C3=O
Activity ([2]; INHIBITOR): 7%

COc1ccc2c(c1)-c1c(sc3ccc(O)cc13)C2=O
metabolised [4]: 50%
Activity [2]: 89%

COc1ccc2c(c1)C(=O)c1sc3ccc(OC)cc3c1-2
CLH [1]: 122 µL/min/mg
Activity ([2]; INHIBITOR): < 5%
t1/2 [3]: 18.9 min

COc1ccc2c(c1)C(=O)c1sc3ccc(O)cc3c1-2
inhibition [5]: 8%
inhibition [6]: 8%
IC50 [7]: 0.026 µM
inhibition [8]: 47%
IC50 [9]: 0.028 µM
inhibition [10]: 15%
inhibition [11]: 88%
inhibition [12]: 66%
IC50 [13]: 0.014 µM
inhibition [14]: 0%
inhibition [15]: 6%
inhibition [16]: 0%
inhibition [17]: 16%
inhibition [18]: 0%
inhibition [19]: 91%
IC50 (U-87 MG): 45.9 µM
inhibition [20]: 42%
inhibition [21]: 57%
inhibition [22]: 7%
inhibition [23]: 5%
inhibition [24]: 95%
IC50 [25]: 0.076 µM
Activity [2]: 93%
inhibition [26]: 0%
inhibition [27]: 95%
inhibition [28]: 0%
inhibition [29]: 93%

COc1ccc2c(c1)C(=O)c1sc3ccccc3c1-2
CLH [1]: 94.8 µL/min/mg
Activity ([2]; INHIBITOR): < 5%
t1/2 [3]: 24.4 min

COc1ccc2c(c1)C(=O)c1sc3ccc(F)cc3c1-2
CLH [1]: 93.9 µL/min/mg
Activity [2]: 78%
Activity ([2]; INHIBITOR): < 5%
t1/2 [3]: 16.8 min

COc1cccc2c1-c1c(sc3ccccc13)C2=O
CLH [1]: 355.5 µL/min/mg
Activity ([2]; INHIBITOR): < 5%
t1/2 [3]: 6.5 min

COc1ccc2c(c1)-c1c(sc3ccc(OC)cc13)C2=O
CLH [1]: 92.4 µL/min/mg
Activity ([2]; INHIBITOR): < 5%

O=C1c2ccccc2-c2c1sc1ccc(O)cc21
IC50 (cells): > 100 µM
IC50 (U-87 MG): > 100 µM
Activity ([2]; INHIBITOR): < 5%

COc1ccc2sc3c(c2c1)-c1c(OC)cccc1C3=O
CLH [1]: > 500 µL/min/mg
Activity [2]: 68%
t1/2 [3]: < 5 min
